Earlier results in patent US20030018074A1, “Antiviral composition and treatment method” (priority 2001, published 2003).
Read-outs that look alike come from different tables or passages of the source. Blank lines part the entries; values can stand above or below the compound they belong to.

Assays:
[1] = tested on: HSV-1 dorsal cutaneous infection; details: 5% in a branch chain ester base; guinea pigs
HSV-2 = details: for EC50: HSV-2, Vero cells, surfactant suspension, read-out: effective concentration required to inhibit plaque formation by 50% (EC50)
[2] = tested on: early viral protein synthesis
HSV-2 virus = details: incubation of HSV-2 with the suspension for 2 hours

SMILES: CCCCC/C=C\C/C=C\C/C=C\CCCCCO [γ-linolenyl alcohol]
- inactivation of viruses, rank among C14 to C20 unsaturated alcohols (in words) (viruses): most effective

SMILES: CCCCCCCCCCCCCCCCCCCCCCCCCCCCCCO [triacontanol, 1-triacontanol]
- efficacy for the treatment of HSV-1 dorsal cutaneous infection (in words) [1]: a certain amount of efficacy

SMILES: CCCCCCCCCCCCCCCCCCCCCCO [n-docosanol]
- EC50 (HSV-2): 9 mM
- concentrations where effective (HSV-2; Vero cultures): 2 to 15 mM
- inhibition of early viral protein synthesis [2]: more than 80%

SMILES: CCCCCCCC/C=C\CCCCCCCCCCCC(N)=O [erucamide, cis-13-docosenoamide]
- percent inhibition of plaque formation (HSV-2; 0.03 mM): 34%
- percent inhibition of plaque formation (HSV-2; 0.59 mM): 42%
- percent inhibition of plaque formation (HSV-2; 0.89 mM): 44%
- percent inhibition of plaque formation (HSV-2; 1.2 mM): 58%
- percent inhibition of plaque formation (HSV-2; 1.5 mM): 68%

SMILES: CCCCCCCC/C=C/CCCCCCCCCCCCO [brassidyl alcohol, trans-13-docosen-1-ol]
- cellular toxicity (in words) (Vero cells; compared with erucyl alcohol): significantly less than that of erucyl alcohol

- EC50 (HSV-2): 0.15 mM
- EC50 lower than the concentration required for n-docosanol (HSV-2; ratio of EC50 n-docosanol to EC50 erucyl alcohol): 60 fold
SMILES: CCCCCCCC/C=C\CCCCCCCCCCCCO [erucyl alcohol, cis-13-docosen-1-ol]
- inhibition of HSV-2 plaque production (HSV-2; concentrations tolerable to the cells (≦1 mM)): ≤ 93%
- cellular toxicity (in words) (Vero cells; 1 mM): no cellular toxicity was observed
- toxicity to Vero cells (in words) (Vero cells; added to cultures at 2-15 mM): toxic to Vero cells
- direct virucidal effect (in words) (HSV-2 virus): did not have a direct virucidal effect
